Laboratory results reported in patent US5538977A, “3-Substituted-7-[3-(imidazol-1-yl)phenyl]-pyrazolo[1,5-a]pyrimidines” (American Cyanamid Company, priority 1995, dated 1996).

Experiments:
[1] = Protection against clonic seizures caused by pentylenetetrazole in rats; assay type: in vivo, rat; conditions: pentylenetetrazole 23 mg/kg i.v. at 30 or 60 min
Experimental: The anti-anxiety and anticonvulsant properties of the novel compounds of the present invention have been established in a test which indicates anxiolytic activity by the measure of protection from convulsions resulting from the administration of pentylenetetrazole. Single or graded dose levels of the test compounds were administered orally or intraperitoneally in a 2% starch vehicle, containing 0.5% v/v polyethylene glycol and one drop of Polysorbate 80 to groups of at least 4 rats. At 30 or 60 minutes, the rats were treated intravenously with pentylenetetrazole at a dose of 23 mg/kg of body weight. This dose is estimated to cause clonic seizures in 99% of unprotected rats. It has Been reported [R. T. Hill and D. H. Tedeschi, "Animal Testing and Screening Procedures in Evaluating Psychotropic Drugs" in "An Introduction to Psychopharmacology",Eds. R. R. Rech and K. E. Moore, Raven Press, N.Y., pp 237-288 (1971)]that there is a high degree of correlation between antagonism of pentylenetetrazole seizures in rats and anti-anxiety or anticonvulsant effects in higher warm-blooded animals.

[2] = Nonconditioned passive avoidance (conflict) test in rats; assay type: in vivo, rat (Wistar strain); conditions: 25 mg/kg oral or i.p., 30 to 60 min, active if number of shocks received is significantly higher than control group by Mann-Witney U test
Experimental: Another test which has been used to assess antianxiety effects is a nonconditioned passive avoidance procedure described by [J. R. Vogel, B. Beer and D. E. Clody, "A Simple and Reliable Conflict Procedure for Testing Anti-Anxiety Agents", Psychopharmacologia, 21, 1-7(1971)]. A conflict situation is induced in rats by a modification of this method.
Groups of 6 naive, Wistar strain rats, weighing 200-240 g each were deprived of water for 48 hours and food for 24 hours. The test compounds were administered in single or graded, oral or intraperitoneal doses, suspended in a 2% starch vehicle containing 0.5% v/v polyethylene glycol and one drop of polysorbate 80. Control animals received the vehicle alone. At 30 to 60 minutes each rat was placed in an individual plexiglass chamber. Water was available ad libitum from a tap located in the rear of the chamber. A 0.7 milliampere DC shocking current was established between the stainless steel grid floor and the tap. After 20 licks of nonshocked drinking, a shock was delivered for 2 seconds and then further shocks were delivered on a ratio of one shock for 2 seconds for every 20 licks. This was continued for a total of 3 minutes. The number of shocks taken by each rat during the 3 minute interval was recorded and compared to a control group. […]

[3] = tested on: brain-specific receptors of rats (3H-benzodiazepine binding); assay: Inhibition of the binding of 3H-benzodiazepine to brain-specific receptors of rats; parameters: species or system rat (Wistar strain); conditions: rat cortex P2-fraction; 3H-diazepam 1.5 nM or 3H-flunitrazepam 1.0 nM; pH 7.4; 30 min in ice; test concentration not given
[4] = Rattus norvegicus, 25 mg/kg oral or i.p., read-out: % of Rats Protected

SMILES | responders at 25 mg/kg [1, 4] [%] | Nonconditional Passive Avoidance Test result [2] | % Inhibition [3] [%] | % of Rats Protected (result in words) ([1]; 6.25 mg/kg oral or i.p.) | % of Rats Protected (result in words) ([1]; 25 mg/kg oral or i.p.) | responders at 3.1 mg/kg ([1]; Rattus norvegicus, 3.1 mg/kg oral or i.p., read-out: % of Rats Protected) [%] | % Inhibition (result in words) [3]
Cc1nccn1-c1cccc(-c2ccnc3c(C(=O)c4ccccc4)cnn23)c1 [Example 1, [7-[3-(2-Methyl-1H-imidazol-1-yl)phenyl]pyrazolo[1,5-a]pyrimidin-3-yl]phenylmethanone compound with dichloromethane (20:1;)] | 100 | active | 98 | – | – | – | –
Cc1nccn1-c1cccc(-c2ccnc3c(C#N)cnn23)c1 [Example 2, 7-[3-(2-methyl-1H-imidazol-1-yl)-phenyl]pyrazolo[1,5-a]pyrimidine-3-carbonitrile compd. with dichloromethane 20:1] | 75 | inactive | 88 | – | – | – | –
N#Cc1cnn2c(-c3cccc(-n4ccnc4)c3)ccnc12 [Example 3, 7-[3-(1H-imidazol-1-yl)phenyl]-pyrazolo[1,5-a]pyrimidine-3-carbonitrile] | 100 | active | 44 | – | – | – | –
O=C(c1ccccc1)c1cnn2c(-c3cccc(-n4ccnc4)c3)ccnc12 [Example 4, [7-[3-(1H-imidazol-1-yl)phenyl]pyrazolo[1,5-a]pyrimidin-3-yl]phenylmethanone] | 100 | inactive | 94 | – | – | – | –
O=C(c1ccco1)c1cnn2c(-c3cccc(-n4ccnc4)c3)ccnc12 [Example 5, 2-furanyl[7-[3-(1H-imidazol-1-yl)-phenyl]-pyrazolo[1,5-a]pyrimidin-3-yl]methanone] | 100 | active | 72 | – | – | – | –
c1cc(-c2ccnc3ccnn23)cc(-n2ccnc2)c1 [Example 6, 7-[3-(1H-imidazol-1-yl)-phenyl]pyrazolo[1,5-a]pyrimidine] | 0 | inactive | 72 | – | – | – | –
Cc1nccn1-c1cccc(-c2ccnc3c(C(=O)c4ccco4)cnn23)c1 [Example 7, 2-furanyl[7-[3-(2-methyl-1H-imidazol-1-yl)phenyl]pyrazolo[1,5-a]pyrimidin-3-yl]methanone compd. with dichloromethane (100:3)] | 25 | active | 101 | – | – | – | –
Cc1cn(-c2cccc(-c3ccnc4c(C(=O)c5cccs5)cnn34)c2)cn1 [Example 8, [7-[3-(4-methyl-1H-imidazol-1-yl)-phenyl]pyrazolo[1,5-a]pyrimidin-3-yl]-2-thienyl-methanone] | 75 | active | 75 | – | – | – | –
Cc1cn(-c2cccc(-c3ccnc4c(C(=O)c5ccco5)cnn34)c2)cn1 [Example 9, 2-furanyl[7-[3-(4-methyl-1H-imidazol-1-yl)phenyl]pyrazolo[1,5-a]pyrimidin-3-yl]methanone compd. with dichloromethane (20:1)] | 50 | active | 98 | – | – | – | –
Cc1nccn1-c1cccc(-c2ccnc3c(C(=O)c4cccs4)cnn23)c1 [Example 10, [7-[3-(2-methyl-1H-imidazol-1-yl)-phenyl]pyrazolo[1,5-a]pyrimidin-3-yl]-2-thienyl-methanone] | 100 | active | 99 | – | – | – | –
O=C(c1cccs1)c1cnn2c(-c3cccc(-n4ccnc4)c3)ccnc12 [Example 11, [7-[3-(1H-imidazol-1-yl)phenyl]pyrazolo[1,5-a]pyrimidin-3-yl]-2-thienyl-methanone] | 50 | inactive | 100 | – | – | – | –
Cc1nccn1-c1cccc(-c2ccnc3c(Cl)cnn23)c1 [Example 12, 3-chloro-7-[3-(2-methyl-1H-imidazol-1-yl)phenyl]pyrazolo[1,5-a]pyrimidine compd. with dichloromethane (20:1)] | 100 | active | – | – | – | – | –
Cc1nccn1-c1cccc(-c2ccnc3ccnn23)c1 [Example 13, 7-[3-(2-methyl-1H-imidazol-1-yl)-phenyl]pyrazolo[1,5-a]pyrimidine] | 50 | active | – | – | – | – | –
Cc1cn(-c2cccc(-c3ccnc4c(C(=O)c5ccccc5)cnn34)c2)cn1 [Example 14, [7-[3-(4-methyl-1H-imidazol-1-yl)-phenyl]pyrazolo[1,5-a]pyrimidin-3-yl]-phenylmethanone compd. with dichloromethane (20:1)] | 100 | active | 93 | – | – | – | –
CCc1nccn1-c1cccc(-c2ccnc3c(C(=O)c4ccccc4)cnn23)c1 [Example 15, [7-[3-(2-ethyl-1H-imidazol-1-yl)-phenyl]pyrazolo[1,5-a]pyrimidin-3-yl]-phenylmethanone] | – | active | 98 | active | – | – | –
O=C(c1ccncc1)c1cnn2c(-c3cccc(-n4ccnc4)c3)ccnc12 [Example 17, [7-[3-(1H-imidazol-1-yl)-phenyl]pyrazolo[1,5-a]pyrimidin-3-yl]-4-pyridinylmethanone] | – | active | 90 | – | inactive | – | –
Cc1nccn1-c1cccc(-c2ccnc3c(C#N)c(N)nn23)c1.Cl [Example 19, 2-amino-7-[3-(2-methyl-1H-imidazol-1-yl)phenyl]pyrazolo-[1,5-a]pyrimidine-3-carbonitrile monohydrochloride] | – | active | – | – | – | 50 | –
Cc1cn(-c2cccc(-c3ccnc4c(C#N)cnn34)c2)cn1 [Example 20, 7-[3-(4-methyl-1H-imidazol-1-yl)-phenyl]pyrazolo[1,5-a]pyrimidine-3-carbonitrile] | 0 | inactive | – | – | – | – | –
CCOC(=O)c1cnn2c(-c3cccc(-n4ccnc4C)c3)ccnc12 [Example 21, ethyl 7-[3-(2-methyl-1H-imidazol-1-yl)phenyl]pyrazolo[1,5-a]pyrimidine-3-carboxylate] | 0 | inactive | – | – | – | – | inactive
